Source: publication PMC6131539, “Behavioral Effects of a Potential Novel TAAR1 Antagonist” (Frontiers in Pharmacology, 2018)

Columns and labels:
C57BL/6J mice = test: Cocaine-induced locomotor activity, co-injection, C57BL/6J mice; type: in vivo; details: 60 min
Procedure: Experimentally naïve mice, of at least 12 weeks of age, were used for all behavioral experiments. The mice were randomly assigned to treatment or control groups, balanced by sex and weight. Locomotor activity was assessed using the automated locomotor analysis monitors (Omnitech Electronics, Columbus, OH, United States). The apparatus included four open field monitors. Each Open Field monitor consisted of sets of 16 light beams arrayed in the horizontal X and Y axes. The hardware detected beams broken by the animal, which allowed the software to determine the location of the mouse in the cage. Total distance covered by mice was used to characterize locomotor activity of the animals. The monitors were divided into four compartments (20 cm × 20 cm). Animals were tested individually for defined periods with 5-min intervals. The mice were first weighed and then placed into the apparatus, allowing for 30 min habituation. Following the habituation, the mice were removed from the al apparatus and injected with drugs (see below for administration) or vehicle and returned immediately to the locomotor chamber. The locomotor activity was then measured for additional 1 h. After the experiments, the animals were euthanized by cervical dislocation.
All drug solutions were prepared freshly on the day of the experiment and injected i.p. at the volume of 10 ml/kg. […] Amphetamine was dissolved in 0.9% saline at a concentration of 0.2 mg/mL.
Since compound 22 enhanced amphetamine-induced locomotor response, we assessed if compound 22 could also enhance cocaine-induced locomotion in WT C57BL/6J mice (Figure 3).
The locomotor activity was assessed for 60 min after the injection. […] Data are means ± SEM; N = 7–9. One way ANOVA was performed [F(3,28) = 7.138, p = 0.001] followed by Dunnett’s post hoc analyses (^∗p < 0.05, ^∗∗∗p < 0.001).

Dopamine Transporter = Dopamine Transporter (Homo sapiens, UniProt Q01959); test: PDSP binding, secondary screen
Procedure: (§1) This was achieved through the identification of potential pharmacological targets of compound 22 using the Psychoactive Drug Screening Program (PDSP) at University of North Carolina-Chapel-Hill. PDSP provides a platform for screening novel psychoactive compounds on human proteins expressed in the central nervous system in order to identify their biological target(s) ([Besnard et al., 2012]). Binding studies were done on 47 targets at a single dose of compound 22 (10 μM; Supplementary Table S1). This primary screen yielded a total of 5 hits for compound 22 (Table 2). These hits were the serotonin, dopamine, and norepinephrine transporters, as well as the sigma 1 and sigma 2 receptors.

Serotonin Transporter = Serotonin Transporter (Homo sapiens, UniProt P31645); test: PDSP binding, secondary screen
Procedure: as §1

[1] = molecular target: Norepinephrine Transporter (Homo sapiens, UniProt P23975); test: PDSP binding, secondary screen
Procedure: as §1

Chain of Dopamine Transporter (Q01959 whole entry): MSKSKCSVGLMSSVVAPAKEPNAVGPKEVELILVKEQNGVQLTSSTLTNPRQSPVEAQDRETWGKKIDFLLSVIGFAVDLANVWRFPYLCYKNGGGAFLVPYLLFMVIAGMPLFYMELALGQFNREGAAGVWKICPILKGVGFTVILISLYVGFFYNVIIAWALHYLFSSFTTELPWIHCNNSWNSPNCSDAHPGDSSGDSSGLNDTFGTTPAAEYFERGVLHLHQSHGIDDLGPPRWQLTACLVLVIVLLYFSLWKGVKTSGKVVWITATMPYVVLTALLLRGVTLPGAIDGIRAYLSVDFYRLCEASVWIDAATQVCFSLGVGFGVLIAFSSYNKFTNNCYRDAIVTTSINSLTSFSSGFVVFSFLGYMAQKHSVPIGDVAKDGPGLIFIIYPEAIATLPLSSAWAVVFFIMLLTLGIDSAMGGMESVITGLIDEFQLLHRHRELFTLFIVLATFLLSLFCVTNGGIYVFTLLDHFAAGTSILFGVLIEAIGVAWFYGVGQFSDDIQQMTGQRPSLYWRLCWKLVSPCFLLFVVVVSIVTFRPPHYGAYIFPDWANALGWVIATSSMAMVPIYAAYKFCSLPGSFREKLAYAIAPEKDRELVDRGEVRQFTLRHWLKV
Chain of Serotonin Transporter (P31645 whole entry): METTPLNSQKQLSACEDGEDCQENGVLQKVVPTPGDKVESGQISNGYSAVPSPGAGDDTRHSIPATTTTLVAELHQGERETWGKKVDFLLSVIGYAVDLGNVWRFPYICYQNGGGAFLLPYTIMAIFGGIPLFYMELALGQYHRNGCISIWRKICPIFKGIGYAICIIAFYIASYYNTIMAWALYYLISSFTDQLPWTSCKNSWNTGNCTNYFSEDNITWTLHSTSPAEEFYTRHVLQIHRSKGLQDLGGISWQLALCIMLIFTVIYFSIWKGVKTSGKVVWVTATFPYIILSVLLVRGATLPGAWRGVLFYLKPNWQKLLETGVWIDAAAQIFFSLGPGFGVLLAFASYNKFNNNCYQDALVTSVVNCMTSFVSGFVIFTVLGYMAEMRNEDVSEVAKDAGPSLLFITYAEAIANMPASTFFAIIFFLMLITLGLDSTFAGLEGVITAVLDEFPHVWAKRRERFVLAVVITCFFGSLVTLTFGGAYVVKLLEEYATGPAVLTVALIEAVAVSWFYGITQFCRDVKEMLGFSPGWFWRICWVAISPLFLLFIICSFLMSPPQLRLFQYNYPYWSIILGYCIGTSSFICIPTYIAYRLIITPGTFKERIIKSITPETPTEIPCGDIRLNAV
Chain of Norepinephrine Transporter (P23975 whole entry): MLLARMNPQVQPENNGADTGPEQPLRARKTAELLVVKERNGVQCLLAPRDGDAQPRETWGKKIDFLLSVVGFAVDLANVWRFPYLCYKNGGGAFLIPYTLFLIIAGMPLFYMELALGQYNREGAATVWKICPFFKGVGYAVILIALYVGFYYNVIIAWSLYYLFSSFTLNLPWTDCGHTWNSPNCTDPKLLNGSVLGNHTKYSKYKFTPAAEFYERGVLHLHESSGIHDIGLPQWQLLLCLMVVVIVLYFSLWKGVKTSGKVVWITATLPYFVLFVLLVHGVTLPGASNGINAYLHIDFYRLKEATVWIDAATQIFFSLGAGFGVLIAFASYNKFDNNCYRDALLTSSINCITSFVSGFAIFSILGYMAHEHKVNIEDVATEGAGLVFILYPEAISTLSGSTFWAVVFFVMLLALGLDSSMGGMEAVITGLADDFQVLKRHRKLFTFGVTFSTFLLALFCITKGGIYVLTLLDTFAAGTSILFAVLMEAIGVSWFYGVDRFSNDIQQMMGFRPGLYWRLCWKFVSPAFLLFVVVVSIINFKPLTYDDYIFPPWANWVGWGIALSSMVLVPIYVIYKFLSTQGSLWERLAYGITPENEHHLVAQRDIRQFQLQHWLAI

## Clc1ccc(CNCc2ccc(Cn3cncn3)cc2)c(Cl)c1 [compound 22]
C57BL/6J mice; 5 mg/kg i.p. co-injected with cocaine 10 mg/kg, p = 0.03
  increase in cocaine-induced locomotor activity: 77%
C57BL/6J mice; 15 mg/kg i.p. co-injected with cocaine 10 mg/kg, p = 0.02
  increase in cocaine-induced locomotor activity: 84%
C57BL/6J mice; 25 mg/kg i.p. co-injected with cocaine 10 mg/kg, p = 0.003
  increase in cocaine-induced locomotor activity: 124%
Dopamine Transporter
  Ki: 1050 nM
Serotonin Transporter
  Ki: 1800 nM
[1]
  Ki: 1900 nM
